# Measurements taken from US11873298B2, “Compounds and uses thereof” (JANSSEN PHARMACEUTICA NV, priority 2017, dated 2024).
# Columns and labels:
# SCD1 = molecular target: T1, SCD1 (Homo sapiens, UniProt O00767); assay: Growth inhibition of humanized yeast strain expressing SCD1 as sole desaturase; type: cell-based; details: humanized yeast strain, 40 h
# T1 construct: host or cells: S. cerevisiae ole1Δ strain (W303 pdr1Δ pdr3Δ background), plasmid pRS316 with TDH3 promoter and CYC1 terminator
# T1 sequence (O00767 1-359): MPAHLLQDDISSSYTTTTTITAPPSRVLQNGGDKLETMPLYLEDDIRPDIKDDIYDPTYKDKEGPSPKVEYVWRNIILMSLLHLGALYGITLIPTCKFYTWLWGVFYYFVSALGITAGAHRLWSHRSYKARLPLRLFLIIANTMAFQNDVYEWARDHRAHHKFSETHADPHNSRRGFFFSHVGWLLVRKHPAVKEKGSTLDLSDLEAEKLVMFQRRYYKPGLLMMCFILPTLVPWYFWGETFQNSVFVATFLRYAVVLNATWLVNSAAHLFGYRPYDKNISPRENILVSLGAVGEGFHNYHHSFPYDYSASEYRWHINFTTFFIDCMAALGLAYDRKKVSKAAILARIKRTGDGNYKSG
# Summary of the method: (§1)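 Yeast ole1Δ strain (W303 pdr1Δ pdr3Δ background) carrying plasmid-borne Ole1, SCD1 or SCD5 as sole desaturase was grown in uracil-lacking media, pre-cultured in raffinose for 6 h, then seeded in galactose medium with compound in DMSO. Growth was read as OD600 after 30° C. incubation: 24 h for Ole1, 40 h for SCD1/SCD5.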
# SCD5 = molecular target: T2, SCD5 (Homo sapiens, UniProt Q86SK9); assay: Growth inhibition of humanized yeast strain expressing SCD5 as sole desaturase; type: cell-based; details: humanized yeast strain, 40 h
# T2 construct: host or cells: S. cerevisiae ole1Δ strain (W303 pdr1Δ pdr3Δ background), plasmid pRS316 with TDH3 promoter and CYC1 terminator
# T2 sequence (Q86SK9 1-330): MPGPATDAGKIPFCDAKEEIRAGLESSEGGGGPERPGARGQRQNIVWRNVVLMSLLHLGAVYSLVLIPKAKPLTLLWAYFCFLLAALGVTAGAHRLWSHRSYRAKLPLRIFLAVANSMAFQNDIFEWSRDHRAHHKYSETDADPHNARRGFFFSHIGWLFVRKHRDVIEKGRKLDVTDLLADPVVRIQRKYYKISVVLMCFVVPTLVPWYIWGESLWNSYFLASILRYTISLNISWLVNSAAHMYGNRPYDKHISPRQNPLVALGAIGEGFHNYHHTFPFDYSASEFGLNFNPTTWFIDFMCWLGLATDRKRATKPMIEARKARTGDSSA
# Summary of the method: as §1
SMILES,IC50 (SCD1),IC50 (SCD5)
CC1(CC(=O)N2CCC(c3noc(-c4ccc5cnn(C6COC6)c5c4)n3)CC2)CC1 [Compound 886],10.6 µM,0.06 µM
O=C(C1CC1)N1CCC(c2noc(-c3ccc4cnn(C5COC5)c4c3)n2)CC1 [Compound 887],> 45 µM,0.01 µM
C=C(C)c1nccn2cc(-c3nc(C4CCN(C(=O)OC(C)(C)C)CC4)no3)cc12 [Compound 888],> 45 µM,0.01 µM
COC1(C(=O)N2CCN(c3noc(-c4ccc5cnn(C(C)C)c5c4)n3)CC2)CC1 [Compound 889],13.3 µM,1.9 µM
O=C(N1CCC(c2noc(-c3ccc4cnn(C5COC5)c4c3)n2)CC1)C12CC(C1)C2 [Compound 890],22.7 µM,0.01 µM
CCC(=O)N1CCC(c2noc(-c3ccc4cnn(C5COC5)c4c3)n2)CC1 [Compound 891],> 45 µM,0.01 µM
COC(=O)N1CCC(F)(c2noc(-c3ccc4cnn(C5COC5)c4c3)n2)CC1 [Compound 892],> 45 µM,0.01 µM
CC(C)n1ncc2c1CN(c1noc(C3CCN(C(=O)OC(C)(C)C)CC3)n1)CC2 [Compound 893],> 45 µM,0.01 µM
O=C(CC1CC1)N1CCC(c2noc(-c3ccc4cnn(C5COC5)c4c3)n2)CC1 [Compound 894],> 45 µM,0.07 µM
O=C(N1CCC(c2noc(-c3ccc4cnn(C5COC5)c4c3)n2)CC1)C12CC(F)(C1)C2 [Compound 895],> 45 µM,0.01 µM
Clc1cnc2n1CCN(c1noc(-c3ccc4cnn(C5COC5)c4c3)n1)C2 [Compound 896],> 45 µM,0.01 µM
CC(=O)N1CC(n2ncc3ccc(-c4noc(N5CCN(C(=O)OC(C)(C)C)CC5)n4)cc32)C1 [Compound 897],> 45 µM,0.06 µM
CC(=O)N1CC(n2cc3ccc(-c4noc(N5CCN(C(=O)OC(C)(C)C)CC5)n4)cc3n2)C1 [Compound 898],> 45 µM,0.07 µM
CC(C)(C)OC(=O)N1CCC(c2nc(-c3ccc4c(C#N)ncn4c3)no2)CC1 [Compound 899],> 45 µM,26 µM
COC(=O)N1CCC(c2nc(-c3ccc4cnc(C5COC5)n4c3)no2)CC1 [Compound 900],> 45 µM,13.1 µM
CC(C)c1nccn2cc(-c3nc(C4CCN(C(=O)OC(C)(C)C)CC4)no3)cc12 [Compound 901],> 45 µM,> 45 µM
COC1(C(=O)N2CCC(c3noc(-c4ccc5cnn(C6COC6)c5c4)n3)CC2)CC1 [Compound 902],> 45 µM,0.01 µM
O=C(N1CCC(c2noc(-c3ccc4cnn(C5COC5)c4c3)n2)CC1)C1(O)CC1 [Compound 903],> 45 µM,0.01 µM
Clc1cnc2n1CCN(c1noc(-c3ccc4cn[nH]c4c3)n1)C2 [Compound 904],> 45 µM,7.62 µM
Clc1cnc2n1CCN(c1noc(-c3ccc4cnn(C5CCC5)c4c3)n1)C2 [Compound 905],> 45 µM,> 45 µM
COC(=O)N1CCC(c2nc(-c3ccc4cnn([C@H]5CCOC5)c4c3)no2)CC1 [Compound 906],> 45 µM,0.89 µM
COC(=O)N1CCC(c2nc(-c3ccc4cnn([C@@H]5CCOC5)c4c3)no2)CC1 [Compound 907],> 45 µM,0.04 µM
COC(=O)N1CCC(c2nc(N3CCc4cnn(C(C)C)c4C3)no2)CC1 [Compound 908],> 45 µM,0.19 µM
CC(C)(C)OC(=O)N1CCC(c2noc(-c3ccc4cnc(C5COC5)n4c3)n2)CC1 [Compound 909],> 45 µM,2.85 µM
CC(C)(C)OC(=O)N1CCN(c2nc(-c3ccc4cnn(C5CNC5)c4c3)no2)CC1 [Compound 910],> 45 µM,0.01 µM
Cc1nn(C)c2cc(-c3nc(C4CCN(C(=O)OC5CC5)CC4)no3)ccc12 [Compound 911],> 45 µM,> 45 µM
CC(C)(C)OC(=O)N1CCC(c2nc(-c3ccc4cn[nH]c4c3)no2)CC1 [Compound 912],> 45 µM,1.98 µM
COC(=O)N1CCN(c2nc(-c3ccc4cnn(C5CNC5)c4c3)no2)CC1 [Compound 913],> 45 µM,13.8 µM
CC(=O)N1CC(n2cc3ccc(-c4nc(N5CCN(C(=O)OC(C)(C)C)CC5)no4)cc3n2)C1 [Compound 914],> 45 µM,6.17 µM
